Each structure is given as a SMILES string.

This assay has as its system PDE4 from human U-937 cells. Description: PDE4 Inhibition Assay. It counts as biochemical. As to conditions: 1 μM cAMP, [3H]-cAMP, read-out: Potency Class (Inhibitory Concentration) in the PDE4 assay. Summed up: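 U-937-derived PDE4 (2 μg/ml) was preincubated with compound in Tris-HCl pH 7.5 for 15 min at 25° C. It then reacted 20 min with cAMP plus [^3H]-cAMP. [^3H]-AMP was converted to [^3H]-adenosine by nucleotidase, resin-separated and counted; IC50 came from percent inhibition.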
Take `COc1ccc(N2CCN(C(=O)C(=O)c3ccco3)[C@@H](Cc3ccccc3)C2)cc1OC1CCCC1` [Compound 302, (S)-1-(2-benzyl-4-(3-(cyclopentyloxy)-4-methoxyphenyl)piperazin-1-yl)-2-(furan-2-yl)ethane-1,2-dione]: the IC50 was in the range of 200 to 1000 nM. Regarding `COc1ccc(N2CCN(C(=O)Cc3nn[nH]n3)[C@@H](Cc3ccccc3)C2)cc1OC1CCC1` [Compound 335, (S)-1-(2-benzyl-4-(3-cyclobutoxy-4-methoxyphenyl)piperazin-1-yl)-2-(2H-tetrazol-5-yl)ethanone], the IC50 was below 200 nM. As to `COc1ccc(N2CCN(C(C)=O)[C@@H](CN3Cc4ccccc4C3)C2)cc1OC1CCCC1` [Compound 252, (S)-1-(4-(3-(cyclopentyloxy)-4-methoxyphenyl)-2-(isoindolin-2-ylmethyl)piperazin-1-yl)ethanone], the IC50 was 200 to 1000 nM. With `COc1ccc(N2CCN(C(=O)Cn3ccnc3)[C@@H](Cc3ccccc3)C2)cc1OC1CCCC1` [Compound 290, (S)-1-(2-benzyl-4-(3-(cyclopentyloxy)-4-methoxyphenyl)piperazin-1-yl)-2-(1H-imidazol-1-yl)ethanone] the figure was above 1000 nM; with `COc1ccc(N2CCN(C(=O)Cc3nc(C)cs3)[C@@H](Cc3ccccc3)C2)cc1OC1CCCC1` [Compound 308, (S)-1-(2-benzyl-4-(3-(cyclopentyloxy)-4-methoxyphenyl)piperazin-1-yl)-2-(4-methylthiazol-2-yl)ethanone], below 200 nM. Regarding `CCc1nn(C(C)C)c2cc(N3CCN(C(=O)CC(N)=O)[C@@H](Cc4ccccc4)C3)ccc12` [Compound 382, (S)-3-(2-benzyl-4-(3-ethyl-1-isopropyl-1H-indazol-6-yl)piperazin-1-yl)-3-oxopropanamide], the IC50 is above 1000 nM. For the molecule `CNCCC(=O)N1CCN(c2ccc(OC)c(OC3CCC3)c2)C[C@@H]1Cc1ccccc1` [Compound 348, (S)-1-(2-benzyl-4-(3-cyclobutoxy-4-methoxyphenyl)piperazin-1-yl)-3-(methylamino)propan-1-one], the IC50 was above 1000 nM.

With `COc1ccc(N2CCN(C(=O)Cc3cncn3C)[C@@H](Cc3ccccc3)C2)cc1OC1CCCC1` [Compound 318, (S)-1-(2-benzyl-4-(3-(cyclopentyloxy)-4-methoxyphenyl)piperazin-1-yl)-2-(1-methyl-1H-imidazol-5-yl)ethanone], the IC50 was 200 to 1000 nM.

Regarding `COc1ccc(N2CCN(C(=O)C3(O)CCC3)[C@@H](Cc3ccccc3)C2)cc1OC1CCCC1` [Compound 297, (S)-(2-benzyl-4-(3-(cyclopentyloxy)-4-methoxyphenyl)piperazin-1-yl)(1-hydroxycyclobutyl)methanone], the IC50 is 200 to 1000 nM. In the case of `COc1ccc(N2CCN(C(=O)CN3CC[C@@H](O)C3)[C@@H](Cc3ccccc3)C2)cc1OC1CCCC1` [Compound 320, 1-((S)-2-benzyl-4-(3-(cyclopentyloxy)-4-methoxyphenyl)piperazin-1-yl)-2-((R)-3-hydroxypyrrolidin-1-yl)ethanone], the IC50 is above 1000 nM. Take `COc1ccc(N2CCN(C(=O)Cc3cc[nH]c3)[C@@H](Cc3ccccc3)C2)cc1OC(C)C` [Compound 328, (S)-1-(2-benzyl-4-(3-isopropoxy-4-methoxyphenyl)piperazin-1-yl)-2-(1H-pyrrol-3-yl)ethanone]: the IC50 was below 200 nM. With `Cc1nc(CC(=O)N2CCN(c3ccc(OC(F)F)c(OCC4CC4)c3)C[C@@H]2CC(C)C)n[nH]1` [Compound 373, (S)-1-(4-(3-(cyclopropylmethoxy)-4-(difluoromethoxy)phenyl)-2-isobutylpiperazin-1-yl)-2-(5-methyl-1-H-1,2,4-triazol-3-yl)ethanone] the figure was below 200 nM; with `COc1ccc(N2CCN(C(=O)COC(C)=O)[C@@H](Cc3ccccc3)C2)cc1OC1CCCC1` [Compound 284, (S)-2-(2-benzyl-4-(3-(cyclopentyloxy)-4-methoxyphenyl)piperazin-1-yl)-2-oxoethyl acetate], above 1000 nM. Consider `CCc1nn(C(C)C)c2cc(N3CCN(C(C)=O)[C@@H](Cc4ccccc4)C3)ccc12` [Compound 379, (S)-1-(2-benzyl-4-(3-ethyl-1-isopropyl-1H-indazol-6-yl)piperazin-1-yl)ethanone], for which the IC50 is above 1000 nM. Regarding `COc1ccc(N2CCN(C(=O)Cc3n[nH]c(=O)[nH]3)[C@@H](Cc3ccccc3)C2)cc1OC1CCCC1` [Compound 293, (S)-3-(2-(2-benzyl-4-(3-(cyclopentyloxy)-4-methoxyphenyl)piperazin-1-yl)-2-oxoethyl)-1H-1,2,4-triazol-5(4H)-one], the IC50 lay in the range of 200 to 1000 nM. On to `CCc1nn(C2CCC2)c2cc(N3CCN(C(=O)CN)[C@@H](Cc4ccccc4)C3)ccc12` [Compound 351, (S)-2-amino-1-(2-benzyl-4-(1-cyclobutyl-3-ethyl-1H-indazol-6-yl)piperazin-1-yl)ethanone], for which the IC50 was above 1000 nM. With `COc1ccc(N2CCN(CC(N)=O)[C@@H](Cc3ccccc3)C2)cc1OC(F)F` [Compound 271, (S)-2-(2-benzyl-4-(3-(difluoromethoxy)-4-methoxyphenyl)piperazin-1-yl)acetamide] the figure was 200 to 1000 nM; with `NC(=O)CC(=O)N1CCN(c2ccc(OC(F)F)c(OC3CCC3)c2)C[C@@H]1Cc1ccccc1` [Compound 263, (S)-3-(2-benzyl-4-(3-cyclobutoxy-4-(difluoromethoxy)phenyl)piperazin-1-yl)-3-oxopropanamide], below 200 nM. With `COc1ccc(N2CCN(C(=O)Cc3cnc[nH]3)[C@@H](Cc3ccccc3)C2)cc1OC(C)C` [Compound 327, (S)-1-(2-benzyl-4-(3-isopropoxy-4-methoxyphenyl)piperazin-1-yl)-2-(1H-imidazol-5-yl)ethanone] the figure was below 200 nM; with `CCOc1ccc(N2CCN(C(C)=O)[C@@H](Cn3cccn3)C2)cc1OC1CCCC1` [Compound 254], above 1000 nM. With `COc1ccc(N2CCN(C(=O)C3(O)CC3)[C@@H](Cc3ccccc3)C2)cc1OC1CCCC1` [Compound 283, (S)-(2-benzyl-4-(3-(cyclopentyloxy)-4-methoxyphenyl)piperazin-1-yl)(1-hydroxycyclopropyl)methanone], the IC50 was in the range of 200 to 1000 nM. For `O=C(Cc1c[nH]cn1)N1CCN(c2ccc(OC(F)F)c(OC3CCC3)c2)C[C@@H]1Cc1ccccc1` [Compound 344, (S)-1-(2-benzyl-4-(3-cyclobutoxy-4-(difluoromethoxy)phenyl)piperazin-1-yl)-2-(1H-imidazol-4-yl)ethanone], the IC50 is below 200 nM. In the case of `COc1ccc(N2CCN(C(=O)Cc3cccnc3)[C@@H](Cc3ccccc3)C2)cc1OC1CCCC1` [Compound 385, (S)-1-(2-benzyl-4-(3-(cyclopentyloxy)-4-methoxyphenyl)piperazin-1-yl)-2-(pyridin-3-yl)ethanone], the IC50 is below 200 nM. Turning to `CNCC(=O)N1CCN(c2ccc(OC)c(OC3CCC3)c2)C[C@@H]1Cc1ccccc1` [Compound 350, (S)-1-(2-benzyl-4-(3-cyclobutoxy-4-methoxyphenyl)piperazin-1-yl)-2-(methylamino)ethanone], the IC50 is above 1000 nM. In the case of `CCc1nn(C2CCC2)c2cc(N3CCN(CCC(N)=O)[C@@H](Cc4ccccc4)C3)ccc12` [Compound 276, (S)-3-(2-benzyl-4-(1-cyclobutyl-3-ethyl-1H-indazol-6-yl)piperazin-1-yl)propanamide], the IC50 was above 1000 nM.

For `CCOc1ccc(N2CCN(C(=O)Cc3n[nH]c(C)n3)[C@@H](Cn3cccn3)C2)cc1OC1CCCC1` [Compound 257], the IC50 was below 200 nM. With `COc1ccc(N2CCN(C(=O)Cc3n[nH]c([N+](=O)[O-])n3)[C@@H](Cc3ccccc3)C2)cc1OC(C)C` [Compound 336, (S)-1-(2-benzyl-4-(3-isopropoxy-4-methoxyphenyl)piperazin-1-yl)-2-(5-nitro-1H-1,2,4-triazol-3-yl)ethanone] the figure was above 1000 nM. In the case of `COc1ccc(N2CCN(C(=O)Cc3n[nH]c(C)n3)[C@@H](Cc3ccccc3)C2)cc1OC(F)F` [Compound 346, (S)-1-(2-benzyl-4-(3-(difluoromethoxy)-4-methoxyphenyl)piperazin-1-yl)-2-(5-methyl-1H-1,2,4-triazol-3-yl)ethanone], the IC50 was below 200 nM. In the case of `COc1ccc(N2CCN(C(=O)[C@H]3C[C@H](O)CN3)[C@@H](Cc3ccccc3)C2)cc1OC1CCCC1` [Compound 278, ((S)-2-benzyl-4-(3-(cyclopentyloxy)-4-methoxyphenyl)piperazin-1-yl)((2R,4S)-4-hydroxypyrrolidin-2-yl)methanone], the IC50 was above 1000 nM. Turning to `COc1ccc(N2CCN(C(=O)CCN)[C@@H](Cc3ccccc3)C2)cc1OC1CCC1` [Compound 274, (S)-3-amino-1-(2-benzyl-4-(3-cyclobutoxy-4-methoxyphenyl)piperazin-1-yl)propan-1-one], the IC50 is above 1000 nM.

Turning to `COc1ccc(N2CCN(C(=O)C3CNC(=O)C3)[C@@H](Cc3ccccc3)C2)cc1OC1CCCC1` (stereo partly drawn) [Compound 299, 4-((S)-2-benzyl-4-(3-(cyclopentyloxy)-4-methoxyphenyl)piperazine-1-carbonyl)pyrrolidin-2-one], the IC50 was in the range of 200 to 1000 nM. Take `COc1ccc(N2CCN(C(=O)CCc3cnc[nH]3)[C@@H](Cc3ccccc3)C2)cc1OC1CCCC1` [Compound 239, (S)-1-(2-benzyl-4-(3-(cyclopentyloxy)-4-methoxyphenyl)piperazin-1-yl)-3-(1H-imidazol-5-yl)propan-1-one]: the IC50 is above 1000 nM. For `COc1ccc(N2CCN(C(=O)c3ccc(CO)cc3)[C@@H](Cc3ccccc3)C2)cc1OC1CCCC1` [Compound 360, (S)-(2-benzyl-4-(3-(cyclopentyloxy)-4-methoxyphenyl)piperazin-1-yl)(4-(hydroxymethyl)phenyl)methanone], the IC50 was above 1000 nM. For `COc1ccc(N2CCN(C(=O)Cc3n[nH]c(N)n3)[C@@H](Cc3ccccc3)C2)cc1OC1CCC1` [Compound 339, (S)-2-(5-amino-1H-1,2,4-triazol-3-yl)-1-(2-benzyl-4-(3-cyclobutoxy-4-methoxyphenyl)piperazin-1-yl)ethanone], the IC50 was below 200 nM.

The values are drawn from patent publication US9624200B2, “Therapeutic piperazines” (DART NEUROSCIENCE (CAYMAN) LTD., priority 2006, dated 2017).
